From US9260710B2, “Photocleavable linker” (City of Hope, priority 2012, dated 2016)

Legend:
[1] = system: GFP-LC8 trap transfected Cos1/Cos7 cells; assay: Organelle dispersion and microtubule array in cells expressing the LC8 trap; format: cell-based; conditions: expression of the trap alone, no AP20187
Source text: In vivo effect of Dynein LC and IC Traps. As tests for LC function, we evaluated the effects of the traps on early endosome, lysosome, and Golgi distribution, as well as mitotic progression. First, we fused green fluorescent protein (GFP) to the N-terminus of both FKBP-traps to identify transfected cells. Next, we transfected Cos1, Cos7, or HeLa cells with either trap or a GFP-FKBP control and labeled endosomes, lysosomes and Golgi with EEA1, LAMP2 and GM130 markers, respectively (FIGS. 12A-12C). […] The percentage of cells expressing the GFPLC8 or GFP-TcTex1 trap with dispersed endosomes was 14.7±1.5% and 13.3±1.5%, respectively, as compared to 11.7±3.5% and 10.3±3.5% for non-transfected cells and cells that expressed a GFP-FKBP control, respectively. […] After 8 h of treatment with AP20187, we observed greater than 50% dispersion of the three organelle types for each trap.
To ensure the AP20187 concentration was not limiting, we followed the LC8-trap-induced dispersion of lysosomes as a function of AP20187 concentration after 8 h. […] For the TcTex1-trap, we observed efficient endosome, lysosome and Golgi dispersion at AP20187 concentrations of 1 μM or greater.
Kinetic Analysis Separates Dynein Functions. A major purpose for developing these traps is to provide immediate inhibition of protein function and follow the cellular response from this perturbation to gain new insight. Thus, we monitored the fraction of cells with dispersed organelles as a function of time. After induction of dimerization by AP20187, effects on both early endosome and lysosome distribution were detectable at 10 min, and leveled off at ˜2 h (FIGS. 14A-14B). […] The most rapid effect was observed on lysosomes in cells expressing the LC8 trap. In striking contrast, Golgi dispersal using either trap occurred over a much longer time-course, requiring 8 h after induction of dimerization to reach similar levels of dispersion as for endosomes and lysosomes. Twenty-four hours after addition of AP20187, the percentage of cells with dispersed Golgi reached levels greater than 85%.

[2] = molecular target: T1, LC8 (Homo sapiens, UniProt P63167); assay: Defective mitotic spindle morphology; format: cell-based; conditions: transfected cells
T1 construct: we monitored the distribution of Golgi in cells subjected to LC8 RNAi; endogenous in cells
T1 sequence (P63167 whole entry): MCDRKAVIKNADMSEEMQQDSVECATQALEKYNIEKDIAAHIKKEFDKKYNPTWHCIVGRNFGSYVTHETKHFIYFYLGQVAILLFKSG
Method: As a test for effects on cytoplasmic dynein functions that are distinct from vesicular transport, we monitored mitotic behavior in cells expressing either the LC8- or TcTex1-traps. We observed little effect on either mitotic index or the fraction of mitotic cells at discrete mitotic stages with either trap (data not shown). […] Finally, similar studies were carried out using the IC trap. As before, we observed little or no change in the dispersion of endosomes and Golgi apparatus before AP20187 treatment. Induction of dimerization through the addition of AP20187 (1 μM) produced immediate changes in both organelles. After 4 h, 81+4% of cells contained dispersed endosomes and 68+3% of cells contained dispersed Golgi. […] The precise reason for this difference is not clear; however, currently, we attribute this to a change in the cytoskeleton, but this must still be verified. We are also in the process of measuring the effect of sequestering the dynein IC on mitotic behavior.

[3] = system: TcTex1; assay: Trap specificity by native PAGE, TcTex1; format: binding; conditions: with or without AP20187 treatment
Source text: In addition, there is no evidence that LC8 can bind proteins bearing a TcTex1 sequence or vice versa (e.g., LC8 binds to BimEL, Pak1, nNOS, etc.; TcTex1 binds to Doc2α, PTHR receptor, etc.50).

Row | defective mitotic spindle morphology [2] | binding to TcTex1 [3] | Substance | percentage of cells with dispersed endosomes [1]
1 | – | – | GFPLC8: green fluorescent protein fused to the N-terminus of the FKBP LC8-trap | 14.7±1.5%
2 | 20+2% | does not bind | LC8-trap: LC8 binding region of the dynein IC (residues 125-137, rat IC2C) fused to the C-terminus of FKBP | –
